Structures are written as SMILES. Read-outs that look alike come from different tables or passages of the source.

The subject of experiment [1] is Capnocytophaga ochraceus.
Experiment [2] deals with Bacterioides gingivalis.
Experiment [3] concerns Acetinobacillus.
Experiment [4] has as its system Eikenella corrdens.
The test system of experiment [5] is Lactobacillus casei.
The subject of experiment [6] is Streptococcuis mutans.
Experiment [7] concerns Streptococcus sanguis.
Experiment [8] deals with Fusobacterium nucleanum.
Where [9] appears, read: Capnocytophaga ochraceus, MH medium, 96 hours anaerobic cultivation at 37° C., less than 10 colonies on LRBB agar.
Setting [10] is: Bacterioides gingivalis, MH medium, 96 hours anaerobic cultivation at 37° C., less than 10 colonies on LRBB agar.
Setting [11] is: Acetinobacillus, MH medium, 96 hours anaerobic cultivation at 37° C., less than 10 colonies on LRBB agar.
The mark [12] stands for this setting: Fusobacterium nucleanum, MH medium, 96 hours anaerobic cultivation at 37° C., less than 10 colonies on LRBB agar.
Where [13] appears, read: Lactobacillus casei, MH medium, 96 hours anaerobic cultivation at 37° C., less than 10 colonies on LRBB agar.
Setting [14] is: Streptococcuis mutans, MH medium, 96 hours anaerobic cultivation at 37° C., less than 10 colonies on LRBB agar.
[15] abbreviates: Streptococcus sanguis, MH medium, 96 hours anaerobic cultivation at 37° C., less than 10 colonies on LRBB agar.

As to `O=C([O-])O.[K+]` [KHCO3, potassium bicarbonate], the disinfection concentration in experiment [1] turned out to be 150; in experiment [2], 100; in experiment [3] it was 300; in experiment [4], 300; in experiment [5], 600; in experiment [6] it was 600. Further, in experiment [7], the disinfection concentration turned out to be 300.

With `O=S(=O)([O-])[O-].[Mg+2]` [MgSO4, magnesium sulfate], the disinfection concentration in experiment [1] (setting [9]) was 400; in experiment [2] (setting [10]), 600; in experiment [3] (setting [11]), 300; in experiment [8] (setting [12]) it was 300; in experiment [5] (setting [13]), 1,500; in experiment [6] (setting [14]), 1,700. For the same compound, the disinfection concentration in experiment [7] (setting [15]) is listed as 1,600.

On to `[Cl-].[Na+]` [NaCl, sodium chloride], for which the disinfection concentration in experiment [1] (setting [9]) is 350; in experiment [2] (setting [10]) it was 650; in experiment [3] (setting [11]), 250; in experiment [4] (Eikenella corrdens, MH medium, 96 hours anaerobic cultivation at 37° C., less than 10 colonies on LRBB agar), 400; in experiment [8] (setting [12]), 400; in experiment [5] (setting [13]) it was 1,200. Further, the disinfection concentration in experiment [6] (setting [14]) is 1,300; in experiment [7] (setting [15]), 2,200.

In the case of `O=C([O-])O.[Na+]` [NaHCO3, sodium bicarbonate], the disinfection concentration in experiment [1] is 200; in experiment [2], 500; in experiment [3], 250; in experiment [8] it was 450; in experiment [5], 500; in experiment [6] it was 450. This compound also came in with a disinfection concentration in experiment [7] of 500.

The values above are taken from patent US20020068038A1, “Foaming tablet for cleaning the oral cavity and preparation method thereof” (priority 1998, published 2002).
